Active and inactive are the calls of the source. The rule behind the calls is not given here.
System: Lactobacillus acidophilus
Test: Prebiotic activity in Lactobacillus acidophilus in simulated intestinal fluid after 1 to 3 hrs
Format: functional

Row | SMILES | Activity
1 | OC[C@H]1O[C@@H](O[C@H]2[C@H](O)[C@H](O)CO[C@]2(O)CO)[C@H](O)[C@@H](O)[C@H]1O | Active
2 | OC[C@H]1O[C@@H](O[C@@H]2[C@H](O)CO[C@](O)(CO)[C@H]2O)[C@H](O)[C@@H](O)[C@H]1O | Active

Reference: ChEMBL document CHEMBL3779794, “Efficient synthesis and activity of beneficial intestinal flora of two lactulose-derived oligosaccharides” (Eur J Med Chem, 2016)
